The values that follow come from paper PMC11820700, “Antioxidant, Enzyme-Inhibitory and Antimicrobial Activity of Underutilized Wheat and Maize Crop Residues” (Plants, 2025).

In experiment [1] the target is acetylcholinesterase (AChE). The note with it: cited from earlier work.
A further experiment deals with tyrosinase from mushroom. In kind it is biochemical.
Experiment [2] concerns the target butyrylcholinesterase (BChE) from equine serum (Equus caballus, UniProt P81908). The experiment is described as follows: biochemical. In kind it is biochemical.
The nature of experiment [3]: FRAP ferric reducing power assay.
In experiment [4] the target is acetylcholinesterase (AChE) from Electrophorus electricus (Electrophorus electricus, UniProt O42275). In words: biochemical.
Experiment [5] relates to Pseudomonas aeruginosa ATCC 9027. In words: Broth microdilution MIC. In kind it is cell-based. As to conditions: ATCC9027, 24 h, read-out: Minimal Inhibitory Concentrations MICs.
The nature of experiment [6]: DPPH free radical scavenging assay.
The test system of experiment [7] is Escherichia coli ATCC 8739. The experiment is described as follows: Broth microdilution MIC. In kind it is cell-based. As to conditions: ATCC8739, 24 h, read-out: Minimal Inhibitory Concentrations MICs.
Experiment [8] has as its system Klebsiella pneumoniae NCIMB 9111. In words: Broth microdilution MIC. The note with it: NCIMB9111, 24 h, read-out: Minimal Inhibitory Concentrations MICs. In kind it is cell-based.
The test system of experiment [9] is Candida albicans ATCC 10231. The experiment is described as follows: Broth microdilution MIC. In kind it is cell-based. The note with it: for Minimal Inhibitory Concentrations MICs: 48 h; for MIC: ATCC10231, 48 h, read-out: Minimal Inhibitory Concentrations MICs.
Experiment [10] concerns Enterococcus faecalis ATCC 29212. The experiment is described as follows: Broth microdilution MIC. In kind it is cell-based. As to conditions: for Minimal Inhibitory Concentrations MICs: 24 h; for MIC: ATCC29212, 24 h, read-out: Minimal Inhibitory Concentrations MICs.
The conditions of experiment [11]: cited from earlier work; for DPPH radical inhibition: concentrations 50–1000 µg/mL, ref Jeong et al. (2010) [24].
For experiment [12], the target named is T1, α-amylase from porcine pancreas (Sus scrofa, UniProt P00690).
T1 construct: purchased Merck KGaA (Darmstadt, Germany) type VI-B (catalogue number not given); host or cells: porcine pancreas
T1 sequence (P00690 16-511): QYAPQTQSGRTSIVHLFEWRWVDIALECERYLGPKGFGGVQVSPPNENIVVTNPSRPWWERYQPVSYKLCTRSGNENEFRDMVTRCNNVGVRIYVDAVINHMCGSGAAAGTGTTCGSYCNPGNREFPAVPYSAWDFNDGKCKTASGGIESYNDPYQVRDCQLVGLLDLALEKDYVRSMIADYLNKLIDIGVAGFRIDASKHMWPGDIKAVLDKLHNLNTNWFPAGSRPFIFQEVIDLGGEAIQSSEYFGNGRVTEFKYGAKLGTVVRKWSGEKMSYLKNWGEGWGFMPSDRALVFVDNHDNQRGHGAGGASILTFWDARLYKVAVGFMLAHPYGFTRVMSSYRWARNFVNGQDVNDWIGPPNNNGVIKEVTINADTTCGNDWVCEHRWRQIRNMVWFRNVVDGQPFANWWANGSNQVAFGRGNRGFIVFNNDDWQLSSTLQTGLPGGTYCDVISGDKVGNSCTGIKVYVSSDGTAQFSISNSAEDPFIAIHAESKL
In words: biochemical. The note with it: read-out: α-amilase IC50 (converted).

In experiment [13] the test system is Staphylococcus aureus ATCC 6538. The experiment is described as follows: Broth microdilution MIC. In kind it is cell-based. As to conditions: ATCC6538, 24 h, extracts 62.5–1000, compounds 31.25–500 µg/mL tested, read-out: Minimal Inhibitory Concentrations MICs.
Experiment [14] in a line: ABTS free radical scavenging assay.
Experiment [15] deals with Bacillus subtilis ATCC 6633. The experiment is described as follows: Broth microdilution MIC. In kind it is cell-based. As to conditions: for Minimal Inhibitory Concentrations MICs: 24 h; for MIC: ATCC6633, 24 h, read-out: Minimal Inhibitory Concentrations MICs.
Experiment [16] deals with Salmonella abony NCTC 6017. The experiment is described as follows: Broth microdilution MIC. In kind it is cell-based. The note with it: Salmonella enterica, NCTC6017; Salmonella abony; 24 h; read-out: Minimal Inhibitory Concentrations MICs.
Another experiment concerns the target tyrosinase. The note with it: cited from earlier work.
Experiment [17] is described as follows: TRC (total reducing capacity) ferric reducing power assay. As to conditions: L-ascorbic acid equivalents.
On the set-up of experiment [18]: method as in Glišić et al. (2024) [4]. As to conditions: ref Glišić et al. (2024) [4]; cited from earlier work.
The conditions of experiment [19]: cited from earlier work.
On the set-up of experiment [20]: method as in Glišić et al. (2024) [4]. As to conditions: ref Glišić et al. (2024) [4]; cited from earlier work. The source holds these as a separate data set.
On the set-up of experiment [21]: method as in Glišić et al. (2024) [4]. The note with it: ref Glišić et al. (2024) [4]; cited from earlier work. This is another data set of the same source.
The next experiment concerns α-amylase. As to conditions: cited from earlier work.
In the next experiment the test system is α-glucosidase. The note with it: cited from earlier work.
Experiment [22] has as its system clinical isolates of both Gram-positive and Gram-negative bacteria. Details: method as in Alves et al. (2013) [45]. The note with it: ref Alves et al. (2013) [45]; cited from earlier work.
The test system of another experiment is Gram-negative bacteria. Details: method as in Lou et al. (2012) [44]. The note with it: ref Lou et al. (2012) [44]; cited from earlier work.
For experiment [23], the system named is three tested Gram-positive bacteria. More on the design: method as in Lou et al. (2012) [44]. The note with it: ref Lou et al. (2012) [44]; cited from earlier work.
Where [24] appears, read: isolated from medicinal rice (Oryza sativa L.), ref Mohanlal et al. (2011) [7].
The mark [25] stands for this setting: mg/mL figure given in parentheses beside mM, ref Jeong et al. (2012) [29].

Molecules are shown by their SMILES. Converted amounts (≈) assume the structure as drawn. “And” between values parts separate entries of the source, which are not always exact repeats. Equal values may be shown once. Read-outs that look alike come from different tables or passages of the source. Marks after values point to notes of the source that are not given here.

acetylcholinesterase (AChE) from Electrophorus electricus, sequence (O42275 24-633 limits assumed): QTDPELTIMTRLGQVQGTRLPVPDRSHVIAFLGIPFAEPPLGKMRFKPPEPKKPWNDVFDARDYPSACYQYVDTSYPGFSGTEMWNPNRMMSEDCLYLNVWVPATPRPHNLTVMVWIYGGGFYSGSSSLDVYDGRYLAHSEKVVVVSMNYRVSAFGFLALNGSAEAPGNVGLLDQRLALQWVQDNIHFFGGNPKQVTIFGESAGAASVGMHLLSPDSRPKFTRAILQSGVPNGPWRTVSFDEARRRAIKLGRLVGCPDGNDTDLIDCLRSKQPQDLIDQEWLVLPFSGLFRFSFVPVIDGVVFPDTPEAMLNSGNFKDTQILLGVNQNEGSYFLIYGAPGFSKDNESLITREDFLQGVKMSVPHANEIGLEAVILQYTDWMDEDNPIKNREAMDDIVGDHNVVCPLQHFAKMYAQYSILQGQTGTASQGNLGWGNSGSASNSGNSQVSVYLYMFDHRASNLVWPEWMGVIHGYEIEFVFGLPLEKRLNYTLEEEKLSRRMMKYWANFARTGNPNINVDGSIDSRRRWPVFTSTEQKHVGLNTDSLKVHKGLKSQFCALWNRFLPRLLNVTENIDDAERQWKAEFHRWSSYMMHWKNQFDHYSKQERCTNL
butyrylcholinesterase (BChE) from equine serum, sequence (P81908 whole entry, looked up): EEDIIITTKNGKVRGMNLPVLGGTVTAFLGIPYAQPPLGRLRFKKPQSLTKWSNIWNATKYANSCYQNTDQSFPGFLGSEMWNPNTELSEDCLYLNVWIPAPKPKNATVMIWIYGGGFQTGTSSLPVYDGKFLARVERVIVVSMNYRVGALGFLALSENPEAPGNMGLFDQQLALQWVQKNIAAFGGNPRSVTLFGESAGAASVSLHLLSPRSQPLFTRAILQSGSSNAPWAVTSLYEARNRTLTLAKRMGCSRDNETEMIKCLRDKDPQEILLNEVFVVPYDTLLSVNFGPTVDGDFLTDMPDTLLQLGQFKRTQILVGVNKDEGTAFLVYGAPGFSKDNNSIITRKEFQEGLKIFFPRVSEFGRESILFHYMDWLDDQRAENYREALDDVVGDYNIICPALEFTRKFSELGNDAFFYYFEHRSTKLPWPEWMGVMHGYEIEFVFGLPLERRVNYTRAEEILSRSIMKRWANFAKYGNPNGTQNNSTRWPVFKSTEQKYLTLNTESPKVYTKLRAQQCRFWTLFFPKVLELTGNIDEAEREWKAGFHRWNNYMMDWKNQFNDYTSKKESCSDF

In the case of `COc1ccc2cc3[n+](cc2c1OC)CCc1cc2c(cc1-3)OCO2` [berberine, reference compound], the “AChE IC50” value in experiment [1] (ref Sim et al. (2014) [39]) is 1.5 µg/mL.
`COc1cc(-c2cc(=O)c3c(O)cc(O)cc3o2)cc(OC)c1O` [TRN, 5,7,4′-trihydroxy-3′,5′-dimethoxyflavone]: the “Tyr IC50” value on tyrosinase from mushroom is given as “did not exhibit inhibitory activity within the tested concentration range”. For the same compound, the IC50 in experiment [2] is 1.67 mM; in experiment [4] it was 8.72 mM; in experiment [12], 5.84 mM. Further, in experiment [3], the FRAP is 0.34 ± 0.01 ^d µmol Fe^2+/g. The MIC in experiment [5] is > 500 µg/mL; in experiment [7] it was > 500 µg/mL; in experiment [8] it was > 500 µg/mL; in experiment [9], 250 µg/mL (≈ 757 µM); in [10], 31.2 µg/mL (≈ 94.6 µM); in experiment [13], 62.5 µg/mL (≈ 189 µM). Further, the MIC was 31.2 µg/mL (≈ 94.6 µM) in experiment [15] and > 500 µg/mL in [16]. The “DPPH IC50” value is 1.71 ± 0.15 ^b mg/mL in experiment [6] and 90.39 µg/mL in [11] (setting [24]). Besides, the entries for the “Minimal Inhibitory Concentrations MICs” value in experiment [9], in experiment [10] and in [15] were 250 µg/mL, 31.25 µg/mL and 31.25 µg/mL, respectively. Further, the “ABTS IC50” value in experiment [14] is given as 0.46 ± 0.01 ^a mg/mL. In addition, on tyrosinase (ref [38]), the “tyrosinase IC50” value is reported as 269.46 µg/mL. Besides, in experiment [17], the TRC is 312.08 ± 12.44 ^d mg L-AAE/g.
Turning to `Cc1cc(C(C)(C)C)c(O)c(C(C)(C)C)c1` [BHT, butylated hydroxytoluene], in [18], the FRAP is 0.41 µmol Fe^2+/g and 0.41 ± 0.03 ^c µmol Fe^2+/g and 0.41 ± 0.03 ^d µmol Fe^2+/g. Besides, the ABTS radicals scavenged in [19] (at 0.2 mg/mL, ref [27]) is 50.32%. Besides, the “ABTS IC50” value in [19] (ref Yang et al. (2024) [20]) was 140 µg/mL; in experiment [20] it was 0.040 ± 0.002 ^e mg/mL. In [11] (at 0.2 mg/mL, ref [27]), the DPPH radicals scavenged was 47.32%. Further, the DPPH radical inhibition in experiment [11] was 73.9–90.7%. Besides, the “DPPH IC50” value is 50 µg/mL in experiment [11] (methanol extracts from unfermented straw, ref Đorđević et al. (2019) [12]); 150 µg/mL in experiment [11] (ref Yang et al. (2024) [20]); 0.038 ± 0.001 ^e mg/mL in experiment [21]. The TRC in experiment [17] is 615.02 ± 38.87 ^c mg L-AAE/g.
In the case of `O=C(O)CC1C(=O)Nc2cccc(O)c21` (stereo not shown) [tasselin A, 4-hydroxy-1-oxindole-3-acetic acid], the IC50 at tyrosinase (ref Wille and Berhow (2011) [37]) is 0.75 mM.
Regarding `C[C@H]1O[C@H](O[C@H]2[C@H](O)[C@@H](O)[C@@H](O[C@H]3[C@H](O)[C@@H](O)C(O)O[C@@H]3CO)O[C@@H]2CO)[C@H](O)[C@@H](O)[C@@H]1N[C@H]1C=C(CO)[C@@H](O)[C@H](O)[C@H]1O` (stereo partly shown) [ACB, acarbose, reference compound], the α-amylase inhibition in the experiment with α-amylase (at 1.5 mg/mL, ref [29]) is given as 59.3%. Besides, the α-glucosidase inhibition in the experiment on α-glucosidase (at 0.44 mg/mL, ref [33]) is on record as 62%; with α-glucosidase (at 1.5 mg/mL, ref [29]), 70.2%.
For the compound `COc1cc(C(O)C(CO)Oc2c(OC)cc(-c3cc(=O)c4c(O)cc(O)cc4o3)cc2OC)ccc1O` (stereo not drawn) [salcolin A, tricin 4′-O-(threo-β-guaiacylglyceryl)ether], in experiment [11] (setting [24]), the “DPPH IC50” value is reported as 208.1 µg/mL.
For `COc1cc([C@H](O)[C@H](CO)Oc2c(OC)cc(-c3cc(=O)c4c(O)cc(O)cc4o3)cc2OC)ccc1O` [salcolin B, tricin 4′-O-(erythro-β-guaiacylglyceryl)ether], the “DPPH IC50” value in experiment [11] (setting [24]) is 352.04 µg/mL.
Turning to `O=c1cc(-c2cc(O)c(O)c(O)c2)oc2cc(O)cc(O)c12` [tricetin], the “AChE IC50” value in experiment [1] (ref Kuppusamy et al. (2017) [40]) is reported as 18.28 µg/mL.
With `O=C1O[C@H]([C@@H](O)CO)C(O)=C1O` [L-AA, L-ascorbic acid], the FRAP in experiment [18] is 1.618 ± 0.004 ^e µmol Fe^2+/g and 1.618 ± 0.004 ^b µmol Fe^2+/g. Besides, the “ABTS IC50” value in [20] is recorded as 0.0316 ± 0.0003 ^e mg/mL. The “DPPH IC50” value in [11] (ref Barnawi et al. (2023) [28]) was 2.51 µg/mL; in experiment [11] (ref Dewi et al. (2021) [15]), 3.55 µg/mL; in [11] (ref Elemosho et al. (2021) [26]) it was 4630 µg/mL; in experiment [21] it was 0.0057 ± 0.0003 ^f mg/mL.
For `O=c1c(O)c(-c2ccc(O)c(O)c2)oc2cc(O)cc(O)c12` [quercetin], the “DPPH IC50” value in experiment [11] (setting [24]) is on record as 42.98 µg/mL.
Regarding `O=C(O)/C=C/c1ccc(O)cc1` [p-CA, p-coumaric acid], on α-amylase (setting [25]), the “α-amylase IC50” value was > 4920 µg/mL. Also, the IC50 is > 30 mM on α-amylase (ref Jeong et al. (2012) [29]), 63.3 mM in experiment [4], 167 mM in experiment [12] and > 30 mM at α-glucosidase (ref Jeong et al. (2012) [29]). In addition, the FRAP in [3] is given as 0.92 ± 0.02 ^c µmol Fe^2+/g. Besides, the MIC in experiment [22] was ≥ 1000 µg/mL; in experiment [5], > 500 µg/mL; in experiment [7], > 500 µg/mL; in experiment [8] it was > 500 µg/mL; in experiment [9] it was 250 µg/mL (≈ 1520 µM); in the experiment with Gram-negative bacteria, 10 to 80 µg/mL. Further, the MIC is 31.2 µg/mL (≈ 190 µM) in [10]; 20 µg/mL (≈ 122 µM) in [23]; 62.5 µg/mL (≈ 381 µM) in experiment [13]; 31.2 µg/mL (≈ 190 µM) in experiment [15]; > 500 µg/mL in [16]. For the same compound, in experiment [6], the “DPPH IC50” value is 2.96 ± 0.16 ^a mg/mL. The “Minimal Inhibitory Concentrations MICs” value was 250 µg/mL in experiment [9], 31.25 µg/mL in [10] and 31.25 µg/mL in experiment [15]. Also, the DPPH radical inhibition in experiment [11] is 10.3–26.9%. For the same compound, in experiment [14], the “ABTS IC50” value was 0.0256 ± 0.0012 ^c mg/mL. Also, the “α-glucosidase IC50” value was > 4920 µg/mL on α-glucosidase (setting [25]); 90.8 µg/mL at α-glucosidase (ref Nile and Park (2014) [34]). Further, the results for the TRC in experiment [17] and in [17] (listed as p-Coumaric acid) were 1810.89 ± 116.14 ^b mg L-AAE/g and 1810.89 mg L-AAE/g, respectively.
